Measured values reported in patent US20250018048A1, “FLUCONAZOLE-COX INHIBITOR HYBRIDS: A DUAL-ACTING CLASS OF ANTIFUNGAL AZOLES” (Ramot at Tel-Aviv University Ltd., priority 2022, published 2025).
“Also recorded” adds a separate entry of the source.

Tested on: panel of 16 representative strains of different species of the genus Candida
Test: Antifungal activity (MIC80) against a panel of Candida strains, comparison
Assay type: cell-based
Conditions: azole-susceptible strains
Experimental: The antifungal activities of the 24 azole-COX inhibitor hybrids were evaluated against a panel of 16 representative strains of different species of the genus Candida. Candida species cause both superficial and systemic infections. The panel included strains of C. albicans, C. glabrata, C. parapsilosis, C. tropicalis, C. guilliermondii, C. dubliniensis, and C. auris (Table S2). To evaluate antifungal activity, the minimal inhibitory concentration 80% (MIC80) values were determined, which were defined as the lowest drug concentrations with turbidity (measured at OD600) less than or equal to that of specific 1:5 dilutions of the growth control. As controls, FLC and VOR, were tested.
MIC80 values were determined using the broth microdilution method over a concentration range of 0.003-64 μg/mL. Orange circles represent C. albicans strains, yellow circles represent C. glabrata strains, and green circles represent C. parapsilosis, C. tropicalis, C. dubliniensis and C. auris. Cells were grown in YPAD medium at 30° C. (For C. auris strains 37° C.) 24 h. Each concentration was tested in triplicate, and results were confirmed in at least two independent experiments.
C. albicans, C. glabrata, C. parapsilosis, C. guilliermondii, C. tropicalis, and C. dubliniensis MICs were determined using CLSI M27-A3 guidelines with minor modifications. Starter cultures were streaked from glycerol stock onto YPAD agar plates and grown for 24 h at 30° C. Colonies were suspended in 1 mL PBS and diluted to 1×10^−3 OD600 and then diluted 1:100 into fresh medium. Hybrids dissolved in DMSO were added to YPAD broth (32 μL stock solution in 1218 μL of YPAD broth), and serial double dilutions of hybrids in YPAD were prepared in flat-bottomed 96-well microplates (Corning) to enable testing of concentrations ranging from 64 μg/mL to 0.003 μg/mL. Control wells with yeast cells but no drug and blank wells containing only YPAD were prepared. An equal volume (100 μL) of yeast suspensions in YPAD broth was added to each well with the exceptions of the blank wells. MIC values (Tables S4-S6) were determined after 24 h at 30° C. by measuring the OD600 using a plate reader (Infinite M200 PRO, Tecan). MIC values were defined as the point at which the OD600 was reduced by >80% compared to the no-drug wells. Each concentration was tested in triplicate, and results were confirmed by two independent sets of experiments. FLC and VOR were used as control drugs.

SMILES | Antifungal potency (MIC80) in comparison with FLC, VOR or the corresponding stereoisomer
C[C@H](C(=O)NC[C@](O)(Cn1cncn1)c1ccc(F)cc1F)c1ccc(-c2ccccc2)c(F)c1 [Hybrid 5] | lowest MIC80 values against all of the azole-susceptible strains; also recorded: more potent than the corresponding R-configured ibuprofen hybrid 6
CC(C)Cc1ccc([C@H](C)C(=O)NC[C@](O)(Cn2cncn2)c2ccc(F)cc2F)cc1 [Hybrid 1] | lowest MIC80 values against all of the azole-susceptible strains; also recorded: up to two orders of magnitude more potent than FLC and was as potent as VOR
